Measured values reported in patent publication US10064885B2, “Metabolic gene, enzyme, and flux targets for cancer therapy” (Massachusetts Institute of Technology, priority 2010, dated 2018).

Legend:
Format in all cases: cell-based, human
[1] = test system: A549 cells; assay: Reductive glutamine metabolism by isotopic labeling and GC/MS in A549 cells expressing shRNAs; details: [U-13C5]glutamine, aspartate, malate, fumarate
Experimental: (§1) Cell Culture, Isotopic Labeling, and Hypoxia. All cell lines were cultured in Dulbecco's Modified Eagle Medium (DMEM; Mediatech) containing 10% fetal bovine serum (FBS; Invitrogen) and 100 U/ml penicillin/streptomycin (P/S; Mediatech) unless otherwise mentioned. Cell lines were obtained from ATCC unless otherwise noted. The VC3 glioma cell line was provided by Tim Lautenschlaeger (Ohio State University), MDA-MB-231 and HCT116 cell lines were provided by Ferdinando Chiaradonna (University of Milano-Bicocca), MRC5 cells were provided by Stephen Lippard (MIT), SN12C, ACHN, and 786-O cells were provided by Kevin Courtney and Lew Cantley (Harvard Medical School), and MCF10A cells were provided by Joan Brugge (Harvard Medical School), and Huh7 cells were provided by Mike Hemann (MIT). MCF10A cells were cultured in custom DMEM/F12 (Hyclone) containing 5% horse serum, 20 ng/ml EGF, 10 μg/ml insulin, 100 ng/ml cholera toxin, 0.5 mg/ml hydrocortisone, 100 U/ml penicillin/streptomycin, and labeled/unlabeled glucose and glutamine at 18 mM and 2.5 mM, respectively. PRC3, WT8, pTV, and pTR cell lines were subcloned from the 786-O cell line as previously described (42, 43). For isotopic labeling experiments, cells were cultured in 6 well plates in glucose- and glutamine-free DMEM (Sigma) containing 10% dialyzed FBS (Invitrogen), 100 U/ml P/S, naturally labeled glucose or glutamine, and the appropriate tracer, including [U-^13C5]glutamine (Isotec), [5-^13C]glutamine (C/D/N Isotopes), [1-^13C]glutamine, [U-^13C6]glucose, [1,2-^13C2]glucose (all from Cambridge Isotope Labs). Steady state labeling of organic and amino acids was accomplished by culturing subconfluent cells in tracer medium for 24 hours. […] The internal gas content was monitored using Fyrite gas analyzers (Bacharach) for CO2 and O2. […]
(§2) Metabolite Extraction and Gas Chromatography/Mass Spectrometry (GC/MS) Analysis. […] In some ISA experiments, cells were trypsinized, counted, and pelleted prior to lipid extraction as described above. […]

[2] = test system: A549 cells; assay: 13C Metabolic Flux Analysis (MFA) of A549 cells expressing IDH1-targeting shRNAs, [U-13C5]glutamine tracer
Experimental: Cell Culture, Isotopic Labeling, and Hypoxia. All cell lines were cultured in Dulbecco's Modified Eagle Medium (DMEM; Mediatech) containing 10% fetal bovine serum (FBS; Invitrogen) and 100 U/ml penicillin/streptomycin (P/S; Mediatech) unless otherwise mentioned. Cell lines were obtained from ATCC unless otherwise noted. The VC3 glioma cell line was provided by Tim Lautenschlaeger (Ohio State University), MDA-MB-231 and HCT116 cell lines were provided by Ferdinando Chiaradonna (University of Milano-Bicocca), MRC5 cells were provided by Stephen Lippard (MIT), SN12C, ACHN, and 786-O cells were provided by Kevin Courtney and Lew Cantley (Harvard Medical School), and MCF10A cells were provided by Joan Brugge (Harvard Medical School), and Huh7 cells were provided by Mike Hemann (MIT). MCF10A cells were cultured in custom DMEM/F12 (Hyclone) containing 5% horse serum, 20 ng/ml EGF, 10 μg/ml insulin, 100 ng/ml cholera toxin, 0.5 mg/ml hydrocortisone, 100 U/ml penicillin/streptomycin, and labeled/unlabeled glucose and glutamine at 18 mM and 2.5 mM, respectively. PRC3, WT8, pTV, and pTR cell lines were subcloned from the 786-O cell line as previously described (42, 43). For isotopic labeling experiments, cells were cultured in 6 well plates in glucose- and glutamine-free DMEM (Sigma) containing 10% dialyzed FBS (Invitrogen), 100 U/ml P/S, naturally labeled glucose or glutamine, and the appropriate tracer, including [U-^13C5]glutamine (Isotec), [5-^13C]glutamine (C/D/N Isotopes), [1-^13C]glutamine, [U-^13C6]glucose, [1,2-^13C2]glucose (all from Cambridge Isotope Labs). Steady state labeling of organic and amino acids was accomplished by culturing subconfluent cells in tracer medium for 24 hours. Labeling of fatty acids for Isotopomer Spectral Analysis (USA) was conducted over 3-5 days of culture in an excess of tracer medium (3-4 ml/well in a 6 well plate) to prevent nutrient depletion. Hypoxic culture was conducted by feeding a custom mixture of 1% O2, 5% CO2, and 94% N2 to a standard incubator controlled at 5% CO2. HEPES (Mediatech) was added to the culture medium at 20 mM to maintain pH between normoxic and hypoxic cultures. The internal gas content was monitored using Fyrite gas analyzers (Bacharach) for CO2 and O2. O2 levels were confirmed at 1.5-2% during hypoxic culture.
Stable cell cultures with decreased IDH1 and IDH2 expression were generated via lentiviral-mediated shRNA expression. pLKO.1 lentiviral vectors targeting IDH1 with shRNA sequences of […] TT (IDH1a; TRCN0000027298; SEQ ID NO:1) and […] TT (IDH1b; TRCN0000027289; SEQ ID NO:2), IDH2 with shRNA sequence […] TT (TRCN0000027225; SEQ ID NO:3). For controls, either non-targeting control shRNA (SHC002; Sigma) or pLKO.1 scrambled control vector (44)(Addgene) were used. pLKO.1 vector targeting ARNT with shRNA sequence […] TT (TRCN0000003819; SEQ ID NO:4) was obtained from Open Biosystems.
HEK293T cells were co-transfected with pLKO.1 vectors and packaging plasmids to produce lentivirus. Filtered supernatants were used for infection, and cells were selected with puromycin (2 μg/ml) for at least two passages before initiating tracer and flux experiments.
Metabolite Extraction and Gas Chromatography/Mass Spectrometry (GC/MS) Analysis. At the conclusion of culture, cells were rinsed with 1 ml ice cold PBS and quenched with 0.4 ml ice cold methanol. An equal volume of water was added, and cells were collected in tubes by scraping with a pipette. One volume of ice cold chloroform was added to each tube, and the extracts were vortexed at 4° C. for 30 minutes. Samples were centrifuged at 14,000 g for 5 minutes at room temperature. For analysis of polar metabolites, the aqueous phase was transferred to a new tube for evaporation under airflow. For ISA experiments, the non-polar fraction was collected and evaporated under airflow. In some ISA experiments, cells were trypsinized, counted, and pelleted prior to lipid extraction as described above. […]

[3] = test system: Hypoxia response element- (HRE-) driven reporter; assay: Hypoxia response element (HRE)-driven reporter in HCT116 cells expressing IDH1-targeting shRNAs; details: normal culture, hypoxia, or 1 mM DMOG, 18 hours
Experimental: Luciferase Assays. Subconfluent cells in 6 well plates were co-transfected with 1 μg of a firefly luciferase vector and 50 ng Renilla luciferase vector (pRL-TK; Promega) using Fugene 6 reagent. The ODD-Luciferase and Luciferase vectors were obtained from Addgene and based off of the pcDNA3.1 vector (49). Hypoxia responsive element-luciferase (HRE-Luc) vectors were used as described (50). Approximately 24 hours after transfection, medium was changed and cells were placed under normoxia, hypoxia, or treated with 1 mM dimethyloxalylglycine (DMOG). After 18 hours of treatment, cells were lysed and luciferase activity was determined using the Dual Luciferase Reporter Assay system (Promega) according to the manufacturer's instructions.

[4] = test system: 143B osteosarcoma; assay: Reductive carboxylation by [1-13C]glutamine labeling and GC/MS in 143B cells expressing shRNAs
Experimental: as §1, with “respectively.” for “respectively. PRC3, WT8, pTV, and pTR cell lines were subcloned from the 786-O cell line as previously described (42, 43). For isotopic labeling experiments, cells were cultured in 6 well plates in glucose- and glutamine-free DMEM (Sigma) containing 10% dialyzed FBS (Invitrogen), 100 U/ml P/S, naturally labeled glucose or glutamine, and the appropriate tracer, including [U-^13C5]glutamine (Isotec), [5-^13C]glutamine (C/D/N Isotopes), [1-^13C]glutamine, [U-^13C6]glucose, [1,2-^13C2]glucose (all from Cambridge Isotope Labs). Steady state labeling of organic and amino acids was accomplished by culturing subconfluent cells in tracer medium for 24 hours.”
as §2

[5] = test system: MDA-MB-231 breast carcinoma; assay: Reductive carboxylation by [1-13C]glutamine labeling and GC/MS in MDA-MB-231 cells expressing shRNAs
Experimental: as §1, §2

[6] = test system: HCT116 colon carcinoma; assay: Reductive carboxylation by [1-13C]glutamine labeling and GC/MS in HCT116 cells expressing shRNAs
Experimental: as §1, §2

[7] = Anaplerotic reactions, exchange flux
[8] = Anaplerotic reactions, net flux
[9] = Pentose Phosphate Pathway, exchange flux
[10] = Pentose Phosphate Pathway, net flux

For “CCGGCGAATCATTTGGGAATTGATTCTCGAGAATCAATTCCCAAATGATTCGTTT TT (CCGGCGAATCATTTGGGAATTGATTCTCGAGAATCAATTCCCAAATGATTCGTTTTT; expressed or natural sequence) [IDH1b, pLKO.1 lentiviral vector shRNA targeting IDH1]”, the “M3 mass isotopomers derived from [U-13C5]glutamine (reductive carboxylation)” value [1] was “decrease in reductive carboxylation”, the “Flux Pyr.m <−> Ala” value ([2]; Amino acids, exchange flux) was 0.00 fmol/cell*hr and the “Flux Gln −> Glu” value ([2]; Amino acids, net flux) was 24.57 fmol/cell*hr. The “Flux Gln.x −> Gln” value ([2]; Amino acids, net flux) was 25.06 fmol/cell*hr, the “Flux Glu −> Glu.x” value ([2]; Amino acids, net flux) was 19.91 fmol/cell*hr and the “Flux Pyr.m −> Ala” value ([2]; Amino acids, net flux) was 0.42 fmol/cell*hr. The “Flux Glu <−> Akg” value [2, 7] was 442.50 fmol/cell*hr, the “Flux Mal <−> Pyr.m + CO2” value [2, 7] was 1.64 fmol/cell*hr and the “Flux Oac <−> Asp” value [2, 7] was 372.30 fmol/cell*hr. The “Flux Glu −> Akg” value [2, 8] was 4.16 fmol/cell*hr, the “Flux Mal −> Pyr.m + CO2” value [2, 8] was 3.56 fmol/cell*hr and the “Flux Oac −> Asp” value [2, 8] was 0.60 fmol/cell*hr. For the same sequence, the “Flux Pyr.m + CO2 −> Oac” value [2, 8] was 0.00 fmol/cell*hr, the “Flux 0.6*Asp + 0.5*Glu + 0.42*Ala + 0.5*Gln −> Biomass” value ([2]; Biomass, net flux) was 1.00 fmol/cell*hr and the “Flux AcCoA.c −> Fatty acids” value ([2]; Biomass, net flux) was 11.28 fmol/cell*hr. For the same sequence, the “Flux Cit −> AcCoA.c + Oac” value ([2]; Biomass, net flux) was 11.28 fmol/cell*hr, the “Flux P5P −> NTP” value ([2]; Biomass, net flux) was 0.50 fmol/cell*hr and the “Flux 0*Pyr.c −> Pyr.mnt” value ([2]; Dilution/Mixing) was 0.82 fmol/cell*hr. For the same sequence, the “Flux 0*Pyr.m −> Pyr.mnt” value ([2]; Dilution/Mixing) was 0.18 fmol/cell*hr, the “Flux 0*Suc −> Suc.mnt” value ([2]; Dilution/Mixing) was 0.85 fmol/cell*hr and the “Flux Suc.d −> Suc.mnt” value ([2]; Dilution/Mixing) was 0.15 fmol/cell*hr. The “Flux Pyr.c <−> Pyr.m” value ([2]; Dilution/Mixing, exchange flux) was 49.63 fmol/cell*hr, the “Flux Pyr.c −> Pyr.m” value ([2]; Dilution/Mixing, net flux) was 13.19 fmol/cell*hr and the “Flux DHAP <−> GAP” value ([2]; Glycolysis, exchange flux) was 550.40 fmol/cell*hr. For the same sequence, the “Flux G6P <−> F6P” value ([2]; Glycolysis, exchange flux) was 0.00 fmol/cell*hr, the “Flux GAP <−> 3PG” value ([2]; Glycolysis, exchange flux) was 160.00 fmol/cell*hr and the “Flux Pyr.c <−> Lac” value ([2]; Glycolysis, exchange flux) was 695.70 fmol/cell*hr. The “Flux 3PG −> Pyr.c” value ([2]; Glycolysis, net flux) was 217.80 fmol/cell*hr, the “Flux DHAP −> GAP” value ([2]; Glycolysis, net flux) was 107.60 fmol/cell*hr and the “Flux F6P −> DHAP + GAP” value ([2]; Glycolysis, net flux) was 107.60 fmol/cell*hr. For the same sequence, the “Flux G6P −> F6P” value ([2]; Glycolysis, net flux) was 102.60 fmol/cell*hr, the “Flux GAP −> 3PG” value ([2]; Glycolysis, net flux) was 217.80 fmol/cell*hr and the “Flux Glc.x −> G6P” value ([2]; Glycolysis, net flux) was 110.60 fmol/cell*hr. The “Flux Lac −> Lac.x” value ([2]; Glycolysis, net flux) was 204.60 fmol/cell*hr, the “Flux Pyr.c −> Lac” value ([2]; Glycolysis, net flux) was 204.60 fmol/cell*hr and the “Flux P5P + E4P <−> F6P + GAP” value [2, 9] was 1.9E+06 fmol/cell*hr. For the same sequence, the “Flux P5P + P5P <−> S7P + GAP” value [2, 9] was 6.3E+07 fmol/cell*hr, the “Flux S7P + GAP <−> F6P + E4P” value [2, 9] was 1.1E+06 fmol/cell*hr and the “Flux G6P −> P5P + CO2” value [2, 10] was 8.01 fmol/cell*hr. For the same sequence, the “Flux P5P + E4P −> F6P + GAP” value [2, 10] was 2.50 fmol/cell*hr, the “Flux P5P + P5P −> S7P + GAP” value [2, 10] was 2.50 fmol/cell*hr and the “Flux S7P + GAP −> F6P + E4P” value [2, 10] was 2.50 fmol/cell*hr. The “Flux Fum <−> Mal” value ([2]; TCA Cycle, exchange flux) was 1.6E+07 fmol/cell*hr, the “Flux Mal <−> Oac” value ([2]; TCA Cycle, exchange flux) was 124.70 fmol/cell*hr and the “Flux Suc <−> Fum” value ([2]; TCA Cycle, exchange flux) was 0.29 fmol/cell*hr. The “Flux Cit <−> Akg + CO2” value ([2]; TCA Cycle, exchange flux (reductive IDH flux)) was 2.39 fmol/cell*hr, the “Flux AcCoA.m + Oac −> Cit” value ([2]; TCA Cycle, net flux) was 16.33 fmol/cell*hr and the “Flux Akg −> Suc + CO2” value ([2]; TCA Cycle, net flux) was 9.21 fmol/cell*hr. For the same sequence, the “Flux Fum −> Mal” value ([2]; TCA Cycle, net flux) was 9.21 fmol/cell*hr, the “Flux Mal −> Oac” value ([2]; TCA Cycle, net flux) was 5.65 fmol/cell*hr and the “Flux Pyr.m −> AcCoA.m + CO2” value ([2]; TCA Cycle, net flux) was 16.33 fmol/cell*hr. The “Flux Suc −> Fum” value ([2]; TCA Cycle, net flux) was 9.21 fmol/cell*hr, the “Flux Cit −> Akg + CO2” value ([2]; TCA Cycle, net flux (IDH)) was 5.05 fmol/cell*hr and the “HRE-driven reporter levels (hypoxia signaling)” value [3] was “does not increase hypoxia signaling and stabilization”. The reductive carboxylation flux [4] was “reduces reductive carboxylation flux”, the “reductive carboxylation flux (M1 label from [1-13C]glutamine)” value [5] was “reduces reductive carboxylation flux” and the “reductive carboxylation flux (M1 label from [1-13C]glutamine)” value [6] was “reduces reductive carboxylation flux”.
